Like-named read-outs stand apart in the source and are kept apart here.
How the values were obtained:
Human Androgen Receptor = target: T1, Human Androgen Receptor (Homo sapiens, UniProt P10275); assay type: binding
T1 construct: expressed in transfected cells; host or cells: HEK-293 cells stably transfected with the pCMVneo-hAR plasmid (G-418 selection); cytosol used
T1 sequence (P10275 1-920): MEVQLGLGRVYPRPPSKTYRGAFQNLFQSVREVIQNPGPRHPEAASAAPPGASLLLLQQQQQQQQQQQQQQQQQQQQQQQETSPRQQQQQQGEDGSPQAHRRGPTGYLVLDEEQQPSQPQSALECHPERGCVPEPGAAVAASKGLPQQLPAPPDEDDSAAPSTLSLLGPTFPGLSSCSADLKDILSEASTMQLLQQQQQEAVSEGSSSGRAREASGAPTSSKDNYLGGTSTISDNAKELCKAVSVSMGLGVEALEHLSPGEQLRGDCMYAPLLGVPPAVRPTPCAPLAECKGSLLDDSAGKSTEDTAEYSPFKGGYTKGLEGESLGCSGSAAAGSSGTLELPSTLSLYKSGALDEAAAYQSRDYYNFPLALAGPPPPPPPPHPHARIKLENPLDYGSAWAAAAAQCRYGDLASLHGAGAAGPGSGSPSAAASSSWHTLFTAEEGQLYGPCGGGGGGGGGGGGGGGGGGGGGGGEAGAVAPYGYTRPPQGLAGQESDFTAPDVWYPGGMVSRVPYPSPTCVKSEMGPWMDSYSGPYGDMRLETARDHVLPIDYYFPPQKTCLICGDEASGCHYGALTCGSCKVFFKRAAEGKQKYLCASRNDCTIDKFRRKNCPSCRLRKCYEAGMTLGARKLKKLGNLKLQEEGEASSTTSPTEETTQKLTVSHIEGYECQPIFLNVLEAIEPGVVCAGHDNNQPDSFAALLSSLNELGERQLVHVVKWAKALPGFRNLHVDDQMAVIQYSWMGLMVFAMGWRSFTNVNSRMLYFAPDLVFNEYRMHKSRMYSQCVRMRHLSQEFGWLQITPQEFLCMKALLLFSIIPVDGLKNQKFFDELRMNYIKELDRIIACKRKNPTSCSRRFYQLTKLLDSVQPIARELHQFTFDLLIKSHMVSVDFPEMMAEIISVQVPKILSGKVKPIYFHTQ

Intact Rat = assay: In vivo activity in intact rat (organ and muscle weight); conditions: rat, in vivo
Immature Rat CX = conditions: for In Vivo Agonist % Change vs CX (DHT = +100%) SV / In Vivo Agonist % Change vs CX (DHT = +100%) VP: po
[1] = tested on: Shionogi mouse mammary carcinoma cells; assay: cells; assay type: cell-based; conditions: for % of inh of DHT at 10^−7 M (Basal = 100%): 0.0003 µM; for Ki: read-out: Shionogi cells Antiandrogenic activity Ki
Immature Rat CX + DHT = assay: animal or person; assay type: in vivo; conditions: po; for change in vivo at 0.1 mg: Rattus norvegicus, 168 h

CC1CC2(C)C(CCC2(O)Cc2cc[n+]([O-])cc2F)C2CCc3c(ccc(C#N)c3F)C12 (stereo not drawn) [EM-6595]
Human Androgen Receptor Binding RBA (%) R1881 = 100% (Human Androgen Receptor): 13% | In Vivo Intact Rat % change vs Intact CONT (Intact CONT = +100%; CX CONT = 0%) Bulbo (Intact Rat): +162 ± 9% | In Vivo Intact Rat % change vs Intact CONT (Intact CONT = +100%; CX CONT = 0%) SZ (Intact Rat): +40 ± 3% | In Vivo Intact Rat % change vs Intact CONT (Intact CONT = +100%; CX CONT = 0%) VP (Intact Rat): +67 ± 10% | In Vivo Agonist Rat CX % change vs CX (DHT CONT = +100%) Bulbo (Immature Rat CX): +97 ± 9% | In Vivo Agonist Rat CX % change vs CX (DHT CONT = +100%) SV (Immature Rat CX): +14 ± 1% | In Vivo Agonist Rat CX % change vs CX (DHT CONT = +100%) VP (Immature Rat CX): +28 ± 3% | % of stim of basal at 10^−7M (% over basal) [1]: +117 ± 11% | % of stim of basal at 10^−7 M (DHT = 100%) [1]: +43 ± 13% | % of inh of DHT at 10^−7 M (Basal = 100%) [1]: −58 ± 13% | In Vivo Anti-A Rat CX + DHT % change vs DHT (CX CONT = −100%) SV (Immature Rat CX + DHT; rat, in vivo): [−74 ± 3] % | In Vivo Anti-A Rat CX + DHT % change vs DHT (CX CONT = −100%) VP (Immature Rat CX + DHT; rat, in vivo): [−56 ± 5] %

CCC1CC2(C)C(CCC2(O)Cc2cc[n+]([O-])cc2)C2CCc3c(ccc(C#N)c3F)C12 (stereo not drawn) [EM-8987]
Human Androgen Receptor Binding RBA (%) R1881 = 100% (Human Androgen Receptor): 26% | In Vivo Intact Rat % change vs Intact CONT (Intact CONT = +100%; CX CONT = 0%) Bulbo (Intact Rat): +292 ± 30% | In Vivo Intact Rat % change vs Intact CONT (Intact CONT = +100%; CX CONT = 0%) SZ (Intact Rat): +110 ± 13% | In Vivo Intact Rat % change vs Intact CONT (Intact CONT = +100%; CX CONT = 0%) VP (Intact Rat): +84 ± 4% | In Vivo Agonist Rat CX % change vs CX (DHT CONT = +100%) Bulbo (Immature Rat CX): +118 ± 10% | In Vivo Agonist Rat CX % change vs CX (DHT CONT = +100%) SV (Immature Rat CX): +25 ± 5% | In Vivo Agonist Rat CX % change vs CX (DHT CONT = +100%) VP (Immature Rat CX): +56 ± 11% | % of stim of basal at 10^−7M (% over basal) [1]: +73% | % of stim of basal at 10^−7 M (DHT = 100%) [1]: +74% | % of inh of DHT at 10^−7 M (Basal = 100%) [1]: +35%

CCC1CC2(C)C(CCC2(O)Cc2cc[n+]([O-])cc2F)C2CCc3c(ccc(C#N)c3F)C12 (stereo not drawn) [EM-9017]
Human Androgen Receptor Binding RBA (%) R1881 = 100% (Human Androgen Receptor): 139% | In Vivo Intact Rat % change vs Intact CONT (Intact CONT = +100%; CX CONT = 0%) Bulbo (Intact Rat): +154 ± 13% | In Vivo Intact Rat % change vs Intact CONT (Intact CONT = +100%; CX CONT = 0%) SZ (Intact Rat): +57 ± 6% | In Vivo Intact Rat % change vs Intact CONT (Intact CONT = +100%; CX CONT = 0%) VP (Intact Rat): +47 ± 5% | inhibition of intact rat prostate (Intact Rat): 53±5% | inhibition of intact rat seminal vesicles (Intact Rat): 43±6% | stimulation of the bulbocavernosus muscles in intact rat (Intact Rat): 54±13% | In Vivo Agonist Rat CX % change vs CX (DHT CONT = +100%) Bulbo (Immature Rat CX): +102 ± 12% | In Vivo Agonist Rat CX % change vs CX (DHT CONT = +100%) SV (Immature Rat CX): +22 ± 2% | In Vivo Agonist Rat CX % change vs CX (DHT CONT = +100%) VP (Immature Rat CX): +24 ± 5% | % of stim of basal at 10^−7M (% over basal) [1]: +36% | % of stim of basal at 10^−7 M (DHT = 100%) [1]: +31% | % of inh of DHT at 10^−7 M (Basal = 100%) [1]: +64% | In Vivo Anti-A Rat CX + DHT % change vs DHT (CX CONT = −100%) Bulbo (Immature Rat CX + DHT; rat, in vivo): +3 ± 11% | In Vivo Anti-A Rat CX + DHT % change vs DHT (CX CONT = −100%) SV (Immature Rat CX + DHT; rat, in vivo): −54 ± 2% | In Vivo Anti-A Rat CX + DHT % change vs DHT (CX CONT = −100%) VP (Immature Rat CX + DHT; rat, in vivo): −42 ± 2%

Cc1cnccc1C[C@]1(O)CCC2C3CCc4c(ccc(C#N)c4F)C3CC[C@@]21C (stereo partly drawn) [EM-8504]
Human Androgen Receptor Binding RBA (%) R1881 = 100% (Human Androgen Receptor): 6.1% | Shionogi cells Antiandrogenic activity Ki OH-Flu/Ki compound [1]: 7.5 | Ki [1]: 2.5 nM | change in vivo at 0.1 mg (Immature Rat CX + DHT; read-out: In Vivo Antagonist % Change vs DHT (CX = −100%) SV): -75 ± 2% | change in vivo at 0.1 mg (Immature Rat CX + DHT; read-out: In Vivo Antagonist % Change vs DHT (CX = −100%) VP): -51 ± 13%

C[C@]12CCC3c4ccc(C#N)c(Cl)c4CCC3C1CCC[C@@]2(O)Cc1ccncc1 (stereo partly drawn) [EM-5943]
Human Androgen Receptor Binding RBA (%) R1881 = 100% (Human Androgen Receptor): 26% | In Vivo Agonist % Change vs CX (DHT = +100%) SV (Immature Rat CX): +3 ± 4% | In Vivo Agonist % Change vs CX (DHT = +100%) VP (Immature Rat CX): +2 ± 2% | Ki [1]: 2.1 ± 1.8 nM

C[C@H]1C[C@@]2(C)C(CC[C@@]2(O)Cc2ccncc2)C2CCc3c(ccc(C#N)c3F)C21 (stereo partly drawn) [EM-6582]
Human Androgen Receptor Binding RBA (%) R1881 = 100% (Human Androgen Receptor): 331% | In Vivo Intact Rat % change vs Intact CONT (Intact CONT = +100%; CX CONT = 0%) Bulbo (Intact Rat): +197 ± 29% | In Vivo Intact Rat % change vs Intact CONT (Intact CONT = +100%; CX CONT = 0%) SZ (Intact Rat): +49 ± 5% | In Vivo Intact Rat % change vs Intact CONT (Intact CONT = +100%; CX CONT = 0%) VP (Intact Rat): +72 ± 6% | In Vivo Agonist Rat CX % change vs CX (DHT CONT = +100%) Bulbo (Immature Rat CX): +71 ± 15% | In Vivo Agonist Rat CX % change vs CX (DHT CONT = +100%) SV (Immature Rat CX): +18 ± 3% | In Vivo Agonist Rat CX % change vs CX (DHT CONT = +100%) VP (Immature Rat CX): +37 ± 3% | % of stim of basal at 10^−7M (% over basal) [1]: +145 ± 78% | % of stim of basal at 10^−7 M (DHT = 100%) [1]: +41 ± 22% | % of inh of DHT at 10^−7 M (Basal = 100%) [1]: +59 ± 22% | In Vivo Anti-A Rat CX + DHT % change vs DHT (CX CONT = −100%) SV (Immature Rat CX + DHT; rat, in vivo): −60 ± 6% | In Vivo Anti-A Rat CX + DHT % change vs DHT (CX CONT = −100%) VP (Immature Rat CX + DHT; rat, in vivo): −36 ± 1%

C[C@]12CCC3c4ccc(C#N)c(F)c4CCC3C1CC[C@@]2(O)Cc1ccncc1 (stereo partly drawn) [EM-5855]
Human Androgen Receptor Binding RBA (%) R1881 = 100% (Human Androgen Receptor): 8.2 ± 0.5% | In Vivo Agonist % Change vs CX (DHT = +100%) SV (Immature Rat CX): [1 ± 4] % | In Vivo Agonist % Change vs CX (DHT = +100%) VP (Immature Rat CX): [2 ± 1] % | Shionogi cells Antiandrogenic activity Ki OH-Flu/Ki compound [1]: 11 ± 1 | Ki [1]: 1 ± 0.2 nM

Cc1c(C#N)ccc2c1CCC1C2CC[C@@]2(C)C1CC[C@@]2(O)Cc1ccncc1 (stereo partly drawn) [EM-5984]
Human Androgen Receptor Binding RBA (%) R1881 = 100% (Human Androgen Receptor): 29% | In Vivo Agonist % Change vs CX (DHT = +100%) SV (Immature Rat CX): 0% | In Vivo Agonist % Change vs CX (DHT = +100%) VP (Immature Rat CX): 0% | Shionogi cells Antiandrogenic activity Ki OH-Flu/Ki compound [1]: 4.0 | Ki [1]: 1.9 nM
